Test results taken from patent US8546451B2 (priority 2005, dated 2013).
Where “and” joins values, the source holds several entries; their conditions need not be identical. Equal entries are not always repeated. Marks after values point to notes of the source that are not given here.

Experiments:
CYP2C9 = CYP2C9 (Homo sapiens (Human), UniProt P11712); assay: CYP450 inhibition in vitro, CYP2C9; assay type: in vitro ADME
[1] = target: ER-β ligand binding domain (LBD) (Homo sapiens (Human), UniProt Q92731); assay: ER-β competitive radioligand binding assay with [3H]E2; conditions: read-out: ER-β Ki
Experimental: (§1) Following incubation, plates were harvested with GF/B filters on the Unifilter-96 Harvester (PerkinElmer) and washed three times with ice-cold buffer B (50 mM Tris, pH 7.2). The filter plates were dried at room temperature, then 35 μl Microscint-O cocktail was added to each well and the filter plates were sealed with TopSeal-A. Radioactivity was counted in a TopCount® NXT Microplate Scintillation Counter using the settings for ^3H in Microscint cocktail (PerkinElmer).
(§2) E2 (determined by incubating with 10^−6 M unlabeled E2) and expressing it as a percentage of the specific binding in the absence of test compound.

[2] = Neuropharmacological and pulmonary safety pharmacology; conditions: in vivo
CYP1A2 = CYP1A2 (Homo sapiens (Human), UniProt P05177); assay: CYP450 inhibition in vitro, CYP1A2; assay type: in vitro ADME; conditions: at concentrations <30 μM
[3] = system: rat bone, organ weight, and serum hormone parameters; assay: Bone preservation despite reduction of LH and testosterone in rats; assay type: in vivo; conditions: for Bone Mineral Density / FSH / LH / Levator Ani Muscle weight / Percent Bone Volume (BV/TV) / Prostate weight / Seminal Vesicles weight: Intact
CYP3A4/5 = assay: CYP450 inhibition in vitro, CYP3A4/5; assay type: in vitro ADME; conditions: at concentrations <30 μM
[4] = system: LH, FSH, testosterone and androgen-dependent organ weights; assay: Suppression of LH and testosterone hormone levels in intact and ORX rats; assay type: in vivo, Sprague-Dawley rats; conditions: for Testosterone levels: LLOQ 0.08 ng/mL
[5] = target: T1, glucocorticoid receptor (GR) (Rattus norvegicus (Rat), UniProt P06536); assay: DES versus Compound IV, GR crossreaction (FIG. 12A); assay type: cell-based
androgen receptor (AR) [6] = target: T2, androgen receptor (AR) (Rattus norvegicus (Rat), UniProt P15207); assay: Cross-reactivity transcriptional activation assay, AR; assay type: cell-based; conditions: agonist and antagonist modes
From the text: (§3) Compound IV was screened for cross-reactivity against rat isoforms of glucocorticoid receptor (GR), mineralocorticoids receptor (MR), progesterone receptor (PR), androgen receptor (AR) and human isoforms of farnesoid X receptor (FXR), liver X receptor (LXR), peroxisome proliferator-activated receptors (PPAR-α and PPAR-γ), and retinoid X receptor (RXR-α) in both agonist and antagonist modes in transcriptional activation assays.

human platelets = assay: In vitro human platelet aggregation assay (thrombin-induced); conditions: platelet rich plasma preincubated 30 seconds; thrombin 0.3 units
[7] = Oral pharmacokinetics in dogs; assay type: in vivo
Experimental: Formulations using polyethylene glycol 300 (PEG300) generally produced higher exposures than microemulsions prepared in Tween 80 diluted in deionized water. […] Importantly, in dogs the exposure in the male 30 mg/kg PEG300 oral dose group exceeded the exposure necessary to produce the maximal effect on prostate reduction in the rat model of LH suppression.

androgen receptor (AR) [8] = target: T2, androgen receptor (AR); assay: DES versus Compound IV, AR crossreaction (FIG. 12B); assay type: cell-based
[9] = target: T1, glucocorticoid receptor (GR); assay: Cross-reactivity transcriptional activation assay, GR; assay type: cell-based; conditions: agonist and antagonist modes
From the text: as §3

[10] = target: ER-α ligand binding domain (LBD) (Homo sapiens (Human), UniProt P03372); assay: ER-α competitive radioligand binding assay with [3H]E2; conditions: read-out: ER-α Ki
Experimental: as §1, §2

hERG channel = hERG channel (Homo sapiens (Human), UniProt Q12809); assay: hERG channel inhibition in vitro; assay type: cell-based
Experimental: Compound IV exerts little or no in vitro inhibitory effects (IC50≧300 μM) on the hERG channel.

[11] = Intact, 0.3 mg/kg per day s.c., 14 days
[12] = Intact, 1 mg/kg per day s.c., 14 days
[13] = Intact, 3 mg/kg per day s.c., 14 days
[14] = Intact, 10 mg/kg per day s.c., 14 days
[15] = Intact, 30 mg/kg per day s.c., 14 days
[16] = ORX, 0.3 mg/kg per day s.c., 14 days
[17] = ORX, 1 mg/kg per day s.c., 14 days
[18] = ORX, 3 mg/kg per day s.c., 14 days
[19] = ORX, 10 mg/kg per day s.c., 14 days
[20] = ORX, 30 mg/kg per day s.c., 14 days

T2 sequence (P15207 whole entry S389L, canonical isoform): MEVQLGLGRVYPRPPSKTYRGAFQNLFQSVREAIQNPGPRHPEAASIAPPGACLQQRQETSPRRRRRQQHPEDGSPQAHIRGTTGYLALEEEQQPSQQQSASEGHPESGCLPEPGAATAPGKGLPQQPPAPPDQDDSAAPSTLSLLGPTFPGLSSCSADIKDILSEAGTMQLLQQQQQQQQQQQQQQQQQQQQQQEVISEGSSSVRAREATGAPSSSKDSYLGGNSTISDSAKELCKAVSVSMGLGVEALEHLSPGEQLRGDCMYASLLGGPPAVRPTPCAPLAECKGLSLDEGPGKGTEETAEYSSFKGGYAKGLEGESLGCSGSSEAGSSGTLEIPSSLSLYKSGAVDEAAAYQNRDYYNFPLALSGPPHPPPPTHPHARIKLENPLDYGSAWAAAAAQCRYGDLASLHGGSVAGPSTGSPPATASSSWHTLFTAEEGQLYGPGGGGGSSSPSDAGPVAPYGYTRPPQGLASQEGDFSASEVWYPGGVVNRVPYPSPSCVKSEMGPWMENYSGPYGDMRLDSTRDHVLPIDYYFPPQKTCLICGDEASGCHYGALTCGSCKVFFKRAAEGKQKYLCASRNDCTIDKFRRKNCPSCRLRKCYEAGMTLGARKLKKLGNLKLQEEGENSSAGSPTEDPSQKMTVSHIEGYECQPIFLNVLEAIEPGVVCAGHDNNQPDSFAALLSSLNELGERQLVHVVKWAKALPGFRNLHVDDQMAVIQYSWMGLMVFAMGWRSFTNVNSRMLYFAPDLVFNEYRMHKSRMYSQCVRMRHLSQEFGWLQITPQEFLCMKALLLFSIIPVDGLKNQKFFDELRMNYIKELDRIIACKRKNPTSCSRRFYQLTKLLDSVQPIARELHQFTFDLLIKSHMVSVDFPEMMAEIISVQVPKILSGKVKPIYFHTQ
T1 sequence (P06536 whole entry): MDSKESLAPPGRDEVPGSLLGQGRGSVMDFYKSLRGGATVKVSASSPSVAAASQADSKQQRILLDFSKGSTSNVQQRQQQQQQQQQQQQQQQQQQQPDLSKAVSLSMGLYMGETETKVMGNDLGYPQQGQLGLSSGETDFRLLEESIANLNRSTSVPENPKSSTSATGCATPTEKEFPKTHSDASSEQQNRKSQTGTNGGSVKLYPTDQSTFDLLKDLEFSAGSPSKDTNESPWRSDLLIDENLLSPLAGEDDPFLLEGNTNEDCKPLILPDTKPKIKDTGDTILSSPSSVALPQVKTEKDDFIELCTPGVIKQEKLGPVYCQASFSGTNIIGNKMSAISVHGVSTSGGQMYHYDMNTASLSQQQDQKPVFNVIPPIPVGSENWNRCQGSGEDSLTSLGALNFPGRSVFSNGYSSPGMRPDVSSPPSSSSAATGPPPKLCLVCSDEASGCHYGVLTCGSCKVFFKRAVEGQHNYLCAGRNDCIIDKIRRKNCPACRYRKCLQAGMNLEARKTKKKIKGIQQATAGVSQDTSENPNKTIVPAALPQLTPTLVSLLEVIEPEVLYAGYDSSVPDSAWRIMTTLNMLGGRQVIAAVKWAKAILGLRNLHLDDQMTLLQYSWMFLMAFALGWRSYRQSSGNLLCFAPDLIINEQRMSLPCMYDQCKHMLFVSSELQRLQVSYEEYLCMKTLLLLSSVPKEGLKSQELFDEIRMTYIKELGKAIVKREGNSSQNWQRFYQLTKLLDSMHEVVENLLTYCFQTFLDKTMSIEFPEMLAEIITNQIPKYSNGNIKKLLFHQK
ER-β ligand binding domain (LBD), sequence (Q92731 264-498, species assumed): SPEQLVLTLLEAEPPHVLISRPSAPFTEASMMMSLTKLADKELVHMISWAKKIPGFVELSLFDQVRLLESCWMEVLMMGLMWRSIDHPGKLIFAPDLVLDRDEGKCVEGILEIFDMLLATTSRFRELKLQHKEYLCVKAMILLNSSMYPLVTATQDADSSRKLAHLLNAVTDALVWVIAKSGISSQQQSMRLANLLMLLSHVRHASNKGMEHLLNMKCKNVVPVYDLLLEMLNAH
ER-α ligand binding domain (LBD), sequence (P03372 whole entry, looked up, species assumed, the tested form may be a part): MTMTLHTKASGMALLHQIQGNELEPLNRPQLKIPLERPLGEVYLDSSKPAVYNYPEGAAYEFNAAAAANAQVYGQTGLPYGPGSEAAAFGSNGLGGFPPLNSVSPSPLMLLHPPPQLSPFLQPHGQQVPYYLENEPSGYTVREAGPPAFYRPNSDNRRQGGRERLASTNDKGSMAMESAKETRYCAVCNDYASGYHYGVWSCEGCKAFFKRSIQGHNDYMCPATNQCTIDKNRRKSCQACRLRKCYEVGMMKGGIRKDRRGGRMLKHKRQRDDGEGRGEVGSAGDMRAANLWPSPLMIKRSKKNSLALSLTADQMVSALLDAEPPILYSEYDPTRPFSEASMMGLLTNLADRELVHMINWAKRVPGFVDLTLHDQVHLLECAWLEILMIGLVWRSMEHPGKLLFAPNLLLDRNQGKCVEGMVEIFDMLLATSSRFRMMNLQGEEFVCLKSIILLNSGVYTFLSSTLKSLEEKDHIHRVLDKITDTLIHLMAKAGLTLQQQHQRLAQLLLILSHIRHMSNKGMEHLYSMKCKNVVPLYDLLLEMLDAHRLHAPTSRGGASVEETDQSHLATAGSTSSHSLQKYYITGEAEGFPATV
CYP2C9, sequence (P11712 whole entry, the tested form may be a part): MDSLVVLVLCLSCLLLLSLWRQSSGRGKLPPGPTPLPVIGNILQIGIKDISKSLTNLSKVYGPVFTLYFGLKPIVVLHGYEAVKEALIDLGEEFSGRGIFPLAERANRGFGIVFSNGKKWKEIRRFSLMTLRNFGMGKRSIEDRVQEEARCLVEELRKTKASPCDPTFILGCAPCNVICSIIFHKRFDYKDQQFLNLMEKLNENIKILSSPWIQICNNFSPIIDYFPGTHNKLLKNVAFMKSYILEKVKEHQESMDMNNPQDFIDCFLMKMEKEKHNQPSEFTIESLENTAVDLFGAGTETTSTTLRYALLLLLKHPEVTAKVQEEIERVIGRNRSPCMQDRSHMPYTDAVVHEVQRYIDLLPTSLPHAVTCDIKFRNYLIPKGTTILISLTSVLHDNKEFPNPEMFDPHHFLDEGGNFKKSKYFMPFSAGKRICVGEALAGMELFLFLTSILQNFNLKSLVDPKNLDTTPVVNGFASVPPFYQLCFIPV
CYP1A2, sequence (P05177 whole entry): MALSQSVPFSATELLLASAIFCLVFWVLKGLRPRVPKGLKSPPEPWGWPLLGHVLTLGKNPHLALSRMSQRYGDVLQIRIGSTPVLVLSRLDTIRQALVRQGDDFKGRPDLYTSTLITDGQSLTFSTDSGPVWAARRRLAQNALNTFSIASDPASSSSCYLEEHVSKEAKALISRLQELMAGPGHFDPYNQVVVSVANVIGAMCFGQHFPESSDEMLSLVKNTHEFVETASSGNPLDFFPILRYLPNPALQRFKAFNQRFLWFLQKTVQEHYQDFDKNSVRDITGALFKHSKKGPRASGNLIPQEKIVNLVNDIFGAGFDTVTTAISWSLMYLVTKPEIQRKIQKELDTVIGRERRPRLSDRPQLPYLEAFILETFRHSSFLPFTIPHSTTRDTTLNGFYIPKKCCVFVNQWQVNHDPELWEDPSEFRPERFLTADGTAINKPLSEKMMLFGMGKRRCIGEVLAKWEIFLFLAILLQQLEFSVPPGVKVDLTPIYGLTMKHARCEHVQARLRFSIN
hERG channel, sequence (Q12809 whole entry): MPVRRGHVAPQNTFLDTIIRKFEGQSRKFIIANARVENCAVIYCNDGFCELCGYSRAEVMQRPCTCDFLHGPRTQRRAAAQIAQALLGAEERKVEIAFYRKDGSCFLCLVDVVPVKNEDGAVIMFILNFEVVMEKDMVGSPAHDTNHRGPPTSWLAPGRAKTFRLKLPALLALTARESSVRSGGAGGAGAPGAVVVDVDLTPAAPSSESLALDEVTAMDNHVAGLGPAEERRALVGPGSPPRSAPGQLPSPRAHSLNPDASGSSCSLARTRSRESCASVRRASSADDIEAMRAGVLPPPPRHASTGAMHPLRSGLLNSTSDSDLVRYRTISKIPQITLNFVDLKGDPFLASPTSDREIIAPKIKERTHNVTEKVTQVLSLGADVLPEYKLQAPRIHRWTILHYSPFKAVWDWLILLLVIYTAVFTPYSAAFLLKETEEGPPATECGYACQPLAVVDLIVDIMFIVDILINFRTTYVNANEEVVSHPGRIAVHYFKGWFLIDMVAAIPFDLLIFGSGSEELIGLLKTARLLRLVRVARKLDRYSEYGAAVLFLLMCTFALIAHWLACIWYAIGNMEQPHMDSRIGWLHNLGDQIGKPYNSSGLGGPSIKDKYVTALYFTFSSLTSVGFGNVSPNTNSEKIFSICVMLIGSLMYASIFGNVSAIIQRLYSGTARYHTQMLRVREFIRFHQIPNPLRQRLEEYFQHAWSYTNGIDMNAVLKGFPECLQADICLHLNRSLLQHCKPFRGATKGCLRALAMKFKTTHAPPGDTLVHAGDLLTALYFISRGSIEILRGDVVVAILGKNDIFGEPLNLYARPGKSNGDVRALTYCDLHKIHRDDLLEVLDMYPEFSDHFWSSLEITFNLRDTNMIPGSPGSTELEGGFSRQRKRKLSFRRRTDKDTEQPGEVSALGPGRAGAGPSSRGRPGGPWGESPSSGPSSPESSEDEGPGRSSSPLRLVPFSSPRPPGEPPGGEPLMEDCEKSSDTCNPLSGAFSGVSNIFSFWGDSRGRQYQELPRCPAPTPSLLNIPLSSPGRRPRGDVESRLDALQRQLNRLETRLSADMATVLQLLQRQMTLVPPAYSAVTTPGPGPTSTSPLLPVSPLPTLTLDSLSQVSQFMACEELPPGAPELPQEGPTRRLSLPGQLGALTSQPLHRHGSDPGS

O=C(c1ccc(O)c(F)c1)N(c1ccc(O)cc1)c1ccc(F)cc1 [Compound IV, 3-fluoro-N-(4-fluorophenyl)-4-hydroxy-N-(4-hydroxyphenyl)benzamide]
Ki (CYP2C9): 8000 nM
Ki [1]: 15.2 ± 4.1 nM
neuropharmacological or pulmonary effects [2]: No neuropharmacological or pulmonary effects were observed
inhibition of CYP1A2 (CYP1A2): does not inhibit
Bone Mineral Density ([3]; 1 mg/kg per day oral): 0.273^b g/cm^3
FSH ([3]; 1 mg/kg per day oral): 14.1^a,b ng/mL
LH ([3]; 1 mg/kg per day oral): 0.820^b ng/mL
Levator Ani Muscle weight ([3]; 1 mg/kg per day oral): 80.0^a,b % of Intact
Percent Bone Volume (BV/TV) ([3]; 1 mg/kg per day oral): 20.0^b %
Prostate weight ([3]; 1 mg/kg per day oral): 69.2^a,b % of Intact
Seminal Vesicles weight ([3]; 1 mg/kg per day oral): 44.6^a,b % of Intact
Bone Mineral Density ([3]; 10 mg/kg per day oral): 0.326^a,b g/cm^3
FSH ([3]; 10 mg/kg per day oral): 5.48^a,b ng/mL
LH ([3]; 10 mg/kg per day oral): 0.060^a,b ng/mL
Levator Ani Muscle weight ([3]; 10 mg/kg per day oral): 58.1^a % of Intact
Percent Bone Volume (BV/TV) ([3]; 10 mg/kg per day oral): 25.9^a,b %
Prostate weight ([3]; 10 mg/kg per day oral): 30.7^a,b % of Intact
Seminal Vesicles weight ([3]; 10 mg/kg per day oral): 12.8^a,b % of Intact
Bone Mineral Density ([3]; 30 mg/kg per day oral): 0.326^a,b g/cm^3
FSH ([3]; 30 mg/kg per day oral): 6.32^a,b ng/mL
LH ([3]; 30 mg/kg per day oral): 0.078^a,b ng/mL
Levator Ani Muscle weight ([3]; 30 mg/kg per day oral): 56.1^a % of Intact
Percent Bone Volume (BV/TV) ([3]; 30 mg/kg per day oral): 25.5^a,b %
Prostate weight ([3]; 30 mg/kg per day oral): 30.1^a,b % of Intact
Seminal Vesicles weight ([3]; 30 mg/kg per day oral): 14.4^a,b % of Intact
dose levels with significant reduction of LH ([3]; intact animals): ≥ 10 mg/kg per day
bone loss associated with LH suppression ([3]; intact male rats, orally administered): completely prevented the bone loss
inhibition of CYP3A4/5 (CYP3A4/5): does not inhibit
FSH [4, 11]: 17.3±6.4 ng/mL and 17.3^b ng/mL
LH [4, 11]: 0.863±0.384 ng/mL and 0.863^b ng/mL
Levator Ani Muscle weight [4, 11]: 86.9±10.0 % of Intact and 86.9^a,b % of Intact
Prostate weight [4, 11]: 84.0±19.2 % of Intact and 84.0^b % of Intact
Seminal Vesicles weight [4, 11]: 76.2±7.8 % of Intact and 76.2^a,b % of Intact
Testosterone levels [4, 11]: 2.6 ± 1.7 ng/mL
FSH [4, 12]: 15.7±7.3 ng/mL and 15.7^b ng/mL
LH [4, 12]: 0.704±0.530 ng/mL and 0.704^b ng/mL
Levator Ani Muscle weight [4, 12]: 82.1±12.1 % of Intact and 82.1^a,b % of Intact
Prostate weight [4, 12]: 75.2±20.7 % of Intact and 75.2^b % of Intact
Seminal Vesicles weight [4, 12]: 66.3±27.2 % of Intact and 66.3^a,b % of Intact
Testosterone levels [4, 12]: 1.6 ± 1.0 ng/mL
FSH [4, 13]: 18.4±7.7 ng/mL and 18.4^b ng/mL
LH [4, 13]: 0.395±0.302 ng/mL and 0.395^a,b ng/mL
Levator Ani Muscle weight [4, 13]: 65.2±4.4 % of Intact and 65.2^a % of Intact
Prostate weight [4, 13]: 68.2±8.1 % of Intact and 68.2^a,b % of Intact
Seminal Vesicles weight [4, 13]: 51.8±28.5 % of Intact and 51.8^a,b % of Intact
Testosterone levels [4, 13]: 0.7 ± 0.4 ng/mL
FSH [4, 14]: 9.2±4.0 ng/mL and 9.25^a,b ng/mL
LH [4, 14]: 0.226±0.165 ng/mL and 0.226^a,b ng/mL
Levator Ani Muscle weight [4, 14]: 57.8±11.2 % of Intact and 57.8^a % of Intact
Prostate weight [4, 14]: 45.1±20.0 % of Intact and 45.1^a,b % of Intact
Seminal Vesicles weight [4, 14]: 19.1±7.0 % of Intact and 19.1^a % of Intact
Testosterone levels [4, 14]: BLOQ
FSH [4, 15]: 6.3±1.8 ng/mL and 6.25^a,b ng/mL
LH [4, 15]: 0.236±0.176 ng/mL and 0.236^a,b ng/mL
Levator Ani Muscle weight [4, 15]: 58.1±4.7 % of Intact and 58.1^a % of Intact
Prostate weight [4, 15]: 43.6±8.8 % of Intact and 43.6^a,b % of Intact
Seminal Vesicles weight [4, 15]: 17.9±3.3 % of Intact and 17.9^a % of Intact
Testosterone levels [4, 15]: BLOQ
FSH [4, 16]: 115±17 ng/mL and 116^a ng/mL
LH [4, 16]: 15.4±2.9 ng/mL and 15.4^a ng/mL
Levator Ani Muscle weight [4, 16]: 54.5±6.6 % of Intact and 54.5^a % of Intact
Prostate weight [4, 16]: 19.0±4.2 % of Intact and 19.0^a,b % of Intact
Seminal Vesicles weight [4, 16]: 12.2±1.3 % of Intact and 12.2^a % of Intact
FSH [4, 17]: 114±22 ng/mL and 114^a ng/mL
LH [4, 17]: 13.5±2.2 ng/mL and 13.5^a ng/mL
Levator Ani Muscle weight [4, 17]: 49.6±7.0 % of Intact and 49.6^a % of Intact
Prostate weight [4, 17]: 17.4±3.4 % of Intact and 17.4^a % of Intact
Seminal Vesicles weight [4, 17]: 16.6±5.4 % of Intact and 16.6^a % of Intact
FSH [4, 18]: 65.2±31.9 ng/mL and 65.2^a ng/mL
LH [4, 18]: 6.5 ± 5.6 ng/mL and 6.5 ng/mL
Levator Ani Muscle weight [4, 18]: 53.6±10.0 % of Intact and 53.6^a % of Intact
Prostate weight [4, 18]: 19.6±6.7 % of Intact and 19.6^a % of Intact
Seminal Vesicles weight [4, 18]: 16.5±4.8 % of Intact and 16.5^a % of Intact
FSH [4, 19]: 27.6±8.2 ng/mL and 27.6^b ng/mL
LH [4, 19]: 0.425±0.135 ng/mL and 0.425^a,b ng/mL
Levator Ani Muscle weight [4, 19]: 51.1±4.9 % of Intact and 51.1^a % of Intact
Prostate weight [4, 19]: 22.9±5.4 % of Intact and 22.9^a,b % of Intact
Seminal Vesicles weight [4, 19]: 13.3±1.9 % of Intact and 13.3^a % of Intact
FSH [4, 20]: 15.1±4.1 ng/mL and 15.1^b ng/mL
LH [4, 20]: 0.368±0.119 ng/mL and 0.368^a,b ng/mL
Levator Ani Muscle weight [4, 20]: 49.2±4.2 % of Intact and 49.2^a,b % of Intact
Prostate weight [4, 20]: 20.6±2.1 % of Intact and 20.6^a,b % of Intact
Seminal Vesicles weight [4, 20]: 12.9±2.1 % of Intact and 12.9^a % of Intact
Testosterone levels ([4]; ORX, all treated groups (0.3-30 mg/kg per day)): BLOQ
doses that significantly suppressed LH levels ([4]; intact and ORX animals, vs respective controls): ≥ 10 mg/kg per day
daily doses with statistically significant LH reductions ([4]; intact animals): ≥ 3 mg/kg
doses with significant FSH reductions ([4]; intact animals): ≥ 10 mg/kg/day
doses with significant testosterone reductions ([4]; intact animals): ≥ 3 mg/kg per day
suppression of serum testosterone ([4]; intact male rats, 3, 10 and 300 mg/kg, after 24 h, 72 h and 168 h (FIG. 9)): Rapid and potent suppression
crossreaction with GR [5]: did not
agonist or antagonist activity (androgen receptor (AR) [6]): did not display any agonist or antagonist activity
effect on thrombin-induced platelet aggregation (human platelets): decreased aggregation
absorption following oral dosing [7]: rapidly absorbed
enterohepatic recirculation ([7]; second peak in the terminal phase of plasma concentration-time profiles): undergoes enterohepatic recirculation
crossreaction with AR (androgen receptor (AR) [8]): did not
agonist or antagonist activity [9]: did not display any agonist or antagonist activity
Ki [10]: 21.7 ± 1.7 nM
IC50 (hERG channel): ≥ 300000 nM
mutagenicity (Mutagenicity): not mutagenic
